One data set addresses T1, ovine COX-1 (Ovis aries, UniProt P05979).
T1 construct: purchased Cayman Chemicals 701050
T1 sequence (P05979 25-600): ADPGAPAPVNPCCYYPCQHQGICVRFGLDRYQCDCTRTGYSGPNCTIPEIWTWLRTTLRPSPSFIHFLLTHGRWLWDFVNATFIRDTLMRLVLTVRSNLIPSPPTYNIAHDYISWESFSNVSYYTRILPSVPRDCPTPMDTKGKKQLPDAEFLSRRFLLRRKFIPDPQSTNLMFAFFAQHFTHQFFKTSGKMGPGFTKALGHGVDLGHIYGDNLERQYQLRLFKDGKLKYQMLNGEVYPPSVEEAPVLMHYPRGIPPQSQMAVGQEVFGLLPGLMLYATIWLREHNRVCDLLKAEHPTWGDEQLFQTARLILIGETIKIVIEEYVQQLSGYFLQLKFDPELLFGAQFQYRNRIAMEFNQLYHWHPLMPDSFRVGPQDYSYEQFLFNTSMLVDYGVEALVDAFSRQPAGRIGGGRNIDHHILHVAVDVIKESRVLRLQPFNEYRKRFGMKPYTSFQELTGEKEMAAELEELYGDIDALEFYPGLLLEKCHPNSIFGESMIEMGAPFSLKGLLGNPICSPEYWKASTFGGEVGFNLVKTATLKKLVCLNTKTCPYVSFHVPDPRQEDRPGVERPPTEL
The experiment in a line: Cyclooxygenase colorimetric inhibitor screening assay, COX-1.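 For all read-outs here: COX peroxidase activity read colorimetrically as oxidized TMPD at 590 nm, arachidonic acid as substrate, inhibitors tested at 0.001–50 µM from DMSO stocks.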 The class given is biochemical. The following applies: for IC50: ovine COX-1, colorimetric kit, triplicate; for IC50 / inhibition at 50 µM: read-out: oCOX-1; for inhibition at 50 µM: % Inhibition at 50 µM (converted).

For a further data set, the target named is T2, human COX-2 (Homo sapiens, UniProt P35354).
T2 construct: purchased Cayman Chemicals 701050
T2 sequence (P35354 18-604): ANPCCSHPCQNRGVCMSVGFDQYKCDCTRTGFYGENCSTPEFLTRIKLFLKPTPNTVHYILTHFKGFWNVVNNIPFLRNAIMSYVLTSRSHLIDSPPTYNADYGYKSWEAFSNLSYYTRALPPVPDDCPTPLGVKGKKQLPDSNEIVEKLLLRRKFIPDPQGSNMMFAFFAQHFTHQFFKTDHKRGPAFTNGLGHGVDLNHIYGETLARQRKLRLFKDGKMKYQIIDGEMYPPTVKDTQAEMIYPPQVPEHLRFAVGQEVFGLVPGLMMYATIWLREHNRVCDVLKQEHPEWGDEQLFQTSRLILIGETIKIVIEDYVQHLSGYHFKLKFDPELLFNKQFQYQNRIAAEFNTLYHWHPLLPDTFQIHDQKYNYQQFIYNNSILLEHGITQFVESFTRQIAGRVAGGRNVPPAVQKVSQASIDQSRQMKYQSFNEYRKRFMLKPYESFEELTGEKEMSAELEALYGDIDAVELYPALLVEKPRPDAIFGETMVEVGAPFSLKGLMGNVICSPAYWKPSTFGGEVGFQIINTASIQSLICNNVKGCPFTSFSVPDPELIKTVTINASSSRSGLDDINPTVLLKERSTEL
The experiment in a line: Cyclooxygenase colorimetric inhibitor screening assay, COX-2.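 For all read-outs here: peroxidase activity of COX-2 followed colorimetrically through formation of oxidized TMPD at 590 nm, with arachidonic acid as substrate, compounds tested from 0.001 to 50 µM.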 Format: biochemical. As to conditions: read-out: hCOX-2; for IC50: human COX-2, colorimetric kit; for inhibition at 50 µM: human COX-2, 50 µM.

Another data set deals with BV2 microglia cells. Description: ROS production (H2DCFDA) in LPS-treated BV2 microglia. Format: cell-based. The following applies: 3 μM, LPS 1 μg/mL, 24 h. An excerpt: Activation of toll-like receptors (TLRs), particularly the TLR4 subtype, is closely associated with the production of reactive oxygen and nitrogen species that contribute to neuronal death in the CNS. In this connection, NADPH oxidase enzymes are the main ones responsible for ROS production induced by NF-κB nuclear translocation. For this reason, we decided to assess the ROS levels of BV2 microglia cells treated with LPS and the effect of our compounds under this toxicity protocol. To this end, the compounds, at different concentrations (3 μM of 3a, 3b, and 3d and 10 μM of 3c) were incubated with 1 μg/mL LPS for 24 h. After this period, ROS production was measured with the fluorescent probe H2DCFDA. Treatment with LPS increased by 1.75-fold the amount of ROS compared with control cells.
Cultures were seeded into flasks containing supplemented medium and kept at 37 °C in a humidified atmosphere of 5% CO2 and 95% air. For assays, BV-2 cells were subcultured in 48-well plates at a seeding density of 1 × 10^5 cells per well. Cells were treated with LPS (Sigma-Aldrich, Madrid, Spain) for 24 or 48 h before confluence in RPMI with 1% FBS.
To measure cellular ROS, we used the molecular probe 2′,7′-dichlorodihydrofluorescein diacetate (H2DCFDA). Glial cells were loaded with 5 µM H2DCFDA as it was previously described (Parada et al., 2015). Fluorescence was measured in a fluorescence microplate reader (FLUOstar Galaxy; BMG Labtech, Offenburg, Germany). Wavelengths of excitation and emission were 485 and 520 nm, respectively. The relative pixel intensity was measured in identical regions with (ImageJ 1.52a software, National Institutes of Health, Bethesda, MD, USA).

What is called melting point is the temperature, or range, at which the solid turns liquid.

Description for human COX-2: (§1) Newly synthesized compounds were evaluated for their ability to inhibit ovine COX-1 or human COX-2 enzyme by measuring the extent (%) of enzyme activity inhibition at different concentrations (0.001, 0.01, 0.1, 1, 10, 50 μM). […] The assay kit measures the peroxidase component of COXs that is assayed colorimetrically by monitoring the appearance of oxidized N,N,N′,N′-tetramethyl-p-phenylenediamine (TMPD) a λ = 590 nm. […] Stock solutions of test compounds were dissolved in DMSO.
Description for ovine COX-1: as §1

On to `Nc1cc(-c2ccc(Br)cc2)cc(-c2ccc(Br)cc2)c1` [Compound 3f, 4,4″-Dibromo-5′-amino-m-terphenyl], for which the melting point lay within 163 to 164 °C. Moreover, the IC50 on ovine COX-1 is > 50 µM. Further, the IC50 at human COX-2 is > 50 µM.
In the case of `O=C(O)c1c(Nc2ccccc2)cc(-c2ccccc2)cc1-c1ccccc1` [Compound 2g, 6-Phenylamino-2,4-diphenylbenzoic acid], the inhibition at 50 µM was 7% at ovine COX-1 (ovine COX-1, 50 µM) and 13% on human COX-2.
In the same order, the values of `Cc1ccc(-c2cc(N)c(C(=O)O)c(-c3ccccc3)c2)cc1` [Compound 2b, 6-Amino-2-phenyl-4-(4-tolyl)benzoic acid] are 46% and 2%.
For `CCOC(=O)c1c(NC(=O)NC2CCCCC2)cc(-c2ccccc2)cc1-c1ccc(OC)cc1` [Compound 5, Ethyl 6-(3′-cyclohexylureido)-2-(4-methoxyphenyl)-4-phenylbenzoate], the IC50 on ovine COX-1 and on human COX-2 was > 50 µM each time.
Consider `CCOC(=O)c1c(N)cc(-c2ccccc2)cc1-c1ccccc1` [Compound 1a, ethyl 6-amino-2,4-diphenylbenzoate], for which the IC50 at ovine COX-1 and on human COX-2 was > 50 µM each time.
`Nc1cc(-c2ccc(Cl)cc2)cc(-c2ccc(Cl)cc2)c1C(=O)O` [Compound 2d, 6-Amino-2,4-di-(4-chlorophenyl)benzoic acid] showed a melting point of 178 to 179 °C. Further, at ovine COX-1, the IC50 was > 50 µM. Further, the inhibition at 50 µM on human COX-2 was found to be 13%.
On to `O=C(Nc1cc(-c2ccccc2)cc(-c2ccccc2)c1)NC1CCCC1` [Compound 4a, 1-([m-Terphenyl]-5′-yl)-3-cyclopentyl urea], for which the IC50 at ovine COX-1 and at human COX-2 was > 50 µM throughout.
`Nc1cc(-c2ccc(Br)cc2)cc(-c2ccc(Br)cc2)c1C(=O)O` [Compound 2f, 6-Amino-2,4-di-(4-bromophenyl)benzoic acid] displayed a melting point of 239 to 240 °C. Also, the inhibition at 50 µM on ovine COX-1 (ovine COX-1, 50 µM) was 8%. Also, the inhibition at 50 µM on human COX-2 stood at 12%.
As to `COc1ccc(-c2cc(N)c(C(=O)O)c(-c3ccccc3)c2)cc1` [Compound 2e, 6-Amino-2-phenyl-4-(4-methoxyphenyl)benzoic acid], the IC50 on ovine COX-1 was > 50 µM. For the same molecule, at human COX-2, the inhibition at 50 µM turned out to be 20%.
On to `Nc1cc(-c2ccc(Cl)cc2)cc(-c2ccc(Cl)cc2)c1` [Compound 3d, 4,4″-Dichloro-5′-amino-m-terphenyl], for which the inhibition at 50 µM at ovine COX-1 (ovine COX-1, 50 µM) was 36%. At human COX-2, the IC50 was > 50 µM. Also, the “ROS production induced by LPS” value with BV2 microglia cells is “failed to decrease the levels of ROS”.
`COc1ccc(-c2noc(CC(=O)O)c2-c2ccc(OC)cc2)cc1` [Mofezolac, mofezolac, reference compound]: the inhibition at 50 µM at ovine COX-1 (ovine COX-1, 50 µM) is 100%; on human COX-2 it was 42%.
For `O=C(Nc1cc(-c2ccccc2)cc(-c2ccc(Cl)cc2)c1)NC1CCCC1` [Compound 4c, 1-([4-Chloro-m-terphenyl]-5′-yl)-3-cyclopentylurea], the melting point was 203 to 204 °C. On ovine COX-1, the IC50 was > 50 µM. Also, at human COX-2, the IC50 was > 50 µM.
`O=C(Nc1cc(-c2ccc(Br)cc2)cc(-c2ccc(Br)cc2)c1)NC1CCCC1` [Compound 4f, 1-([4,4″-Dibromo-m-terphenyl]-5′-yl)-3-cyclopentylurea] returned a melting point of 222 to 223 °C. Also, on ovine COX-1 (ovine COX-1, 50 µM), the inhibition at 50 µM was 10%. Also, the “COX-1 selectivity (in words)” value on ovine COX-1 (ovine COX-1 vs human COX-2) is “did not show COX-1 selectivity”. The inhibition at 50 µM on human COX-2 stood at 30%.
Regarding `COc1ccc(-c2cc(NC(=O)NC3CCCC3)cc(-c3ccccc3)c2)cc1` [Compound 4e, 1-([4-Methoxy-m-terphenyl]-5′-yl)-3-cyclopentylurea], the melting point was 208 to 209 °C. The IC50 at ovine COX-1 is > 50 µM. Besides, the IC50 at human COX-2 was > 50 µM.
Take “ethyl 6-amino-2-(4-methoxyphenyl)-2-phenylbenzoate [Compound 1e]”: the “oCOX-1; % Inhibition at 50 µM” value at ovine COX-1 (ovine COX-1, 50 µM) is “NM (9) %”. Moreover, the IC50 on human COX-2 was > 50 µM.
Molecule `Nc1cc(-c2ccccc2)cc(-c2ccccc2)c1C(=O)O` [Compound 2a, 6-Amino-2,4-diphenylbenzoic acid] gave a melting point of 162 to 163 °C. In addition, the inhibition at 50 µM on ovine COX-1 (ovine COX-1, 50 µM) is 32%. Moreover, the inhibition at 50 µM on human COX-2 turned out to be 3%.
`Cc1ccc(-c2cc(NC(=O)NC3CCCC3)cc(-c3ccccc3)c2)cc1` [Compound 4b, 1-([4-Methyl-m-terphenyl]-5′-yl)-3-cyclopentyl urea] yielded a melting point of 217 to 218 °C. Moreover, the IC50 on ovine COX-1 is > 50 µM. The IC50 at human COX-2 was > 50 µM.
Consider `c1ccc(Nc2cc(-c3ccccc3)cc(-c3ccccc3)c2)cc1` [Compound 3g, 5′-Phenylamino-m-terphenyl], for which the IC50 at ovine COX-1 and on human COX-2 was > 50 µM throughout.
Turning to `Nc1cc(-c2ccc(Cl)cc2)cc(-c2ccccc2)c1C(=O)O` [Compound 2c, 6-Amino-2-phenyl-4-(4-chlorophenyl)benzoic acid], the melting point was in the range of 229 to 230 °C. Besides, the IC50 at ovine COX-1 was > 50 µM. For the same molecule, at human COX-2, the inhibition at 50 µM is 4%.
Take `O=C(Nc1cc(-c2ccc(Cl)cc2)cc(-c2ccc(Cl)cc2)c1)NC1CCCC1` [Compound 4d, 1-([4,4″-Dichloro-m-terphenyl]-5′-yl)-3-cyclopentylurea]: the melting point was in the range of 239 to 240 °C. The IC50 at ovine COX-1 is > 50 µM. In addition, the IC50 on human COX-2 is > 50 µM.

Values taken from PMC10384011, “m-Terphenylamines, Acting as Selective COX-1 Inhibitors, Block Microglia Inflammatory Response and Exert Neuroprotective Activity” (Molecules, 2023).
